Laboratory results as given in the NIST ThermoML archive (doi:10.1021/je400250u).
Several values for one entry are separate records, joined by “and”; a condition that tells them apart may be missing. Identical values can stand only once. Numbers after ± are expanded uncertainties.

What was measured:
[1] = refractive index (Na D-line) (dimensionless); details: 101.33 kPa, Liquid, Standard Abbe refractometry
[2] = 100 kPa, Liquid; for viscosity: Capillary tube (Ostwald / Ubbelohde) method; for mass density: Vibrating tube method
[3] = refractive index (Na D-line) (dimensionless); xn = mol fraction of the nth substance listed; details: Liquid, Standard Abbe refractometry, x2 = 0
[4] = xn = mol fraction of the nth substance listed; details: 100 kPa, Liquid, x2 = 0; for viscosity: Capillary tube (Ostwald / Ubbelohde) method; for mass density: Vibrating tube method

C1CC[C@H]2CCCC[C@H]2C1 [cis-decahydronaphthalene]
Details	mass density, [2] [kg/m3]	refractive index, [1]	viscosity, [2]
293.15 K	896.85 ± 0.48	–	3.355 ± 0.033 mPa·s
298.15 K	893.06 ± 0.48	1.4776 ± 0.0013	3.011 ± 0.03 mPa·s
303.15 K	889.26 ± 0.48	–	2.718 ± 0.028 mPa·s
308.15 K	885.46 ± 0.48	1.4736 ± 0.0013	2.47 ± 0.026 mPa·s
313.15 K	881.65 ± 0.48	–	2.252 ± 0.024 mPa·s
318.15 K	877.85 ± 0.47	1.4696 ± 0.0013	2.079 ± 0.022 mPa·s and 2.063 ± 0.022 mPa·s
323.15 K	874.05 ± 0.47	–	1.912 ± 0.021 mPa·s and 1.898 ± 0.021 mPa·s

CCCCCCCCCC [decane]
Details	mass density, [2] [kg/m3]	refractive index, [1]	viscosity, [2] [mPa·s]
293.15 K	731.14 ± 0.23	–	0.916 ± 0.012
298.15 K	727.43 ± 0.23	1.4098 ± 0.0012	0.852 ± 0.012
303.15 K	723.64 ± 0.23	–	0.799 ± 0.012
308.15 K	719.84 ± 0.23	1.4052 ± 0.0012	0.751 ± 0.011
313.15 K	716.03 ± 0.23	–	0.709 ± 0.011
318.15 K	712.2 ± 0.23	1.4 ± 0.0012	0.667 ± 0.011
323.15 K	708.36 ± 0.23	–	0.632 ± 0.011

CCCCCCCCCC [decane] + C1CC[C@H]2CCCC[C@@H]2C1
[3], 101 kPa
Details	refractive index
298.15 K	1.4098 ± 0.0007
308.15 K	1.4052 ± 0.0007
318.15 K	1.4 ± 0.0007

[4]
Details	mass density [kg/m3]	viscosity [mPa·s]
293.15 K	731.14 ± 0.23	0.916 ± 0.012
298.15 K	727.43 ± 0.23	0.852 ± 0.012
303.15 K	723.64 ± 0.23	0.799 ± 0.012
308.15 K	719.84 ± 0.23	0.751 ± 0.011
313.15 K	716.03 ± 0.23	0.709 ± 0.011
318.15 K	712.2 ± 0.23	0.667 ± 0.011
323.15 K	708.36 ± 0.23	0.632 ± 0.011

CCCCCCCCCC [decane] + C1CC[C@H]2CCCC[C@H]2C1
[3], 100 kPa
Details	refractive index
298.15 K	1.4098 ± 0.0012
308.15 K	1.4052 ± 0.0012
318.15 K	1.4 ± 0.0012

[4]
Details	mass density [kg/m3]	viscosity [mPa·s]
293.15 K	731.14 ± 0.23	0.916 ± 0.012
298.15 K	727.43 ± 0.23	0.852 ± 0.012
303.15 K	723.64 ± 0.23	0.799 ± 0.012
308.15 K	719.84 ± 0.23	0.751 ± 0.011
313.15 K	716.03 ± 0.23	0.709 ± 0.011
318.15 K	712.2 ± 0.23	0.667 ± 0.011
323.15 K	708.36 ± 0.23	0.632 ± 0.011

CCCCCCCCC [nonane]
Details	mass density, [2] [kg/m3]	refractive index, [1]	viscosity, [2] [mPa·s]
293.15 K	717.94 ± 0.24	–	0.724 ± 0.011
298.15 K	714.11 ± 0.24	1.4026 ± 0.0013	0.681 ± 0.011
303.15 K	710.2 ± 0.24	–	0.64 ± 0.011
308.15 K	706.29 ± 0.25	1.3983 ± 0.0013	0.604 ± 0.011
313.15 K	702.35 ± 0.25	–	0.571 ± 0.011
318.15 K	698.4 ± 0.25	1.3937 ± 0.0013	0.547 ± 0.011
323.15 K	694.43 ± 0.25	–	0.521 ± 0.011

CCCCCCCCC [nonane] + C1CC[C@H]2CCCC[C@@H]2C1
[3], 100 kPa
Details	refractive index
298.15 K	1.4026 ± 0.0013
308.15 K	1.3983 ± 0.0013
318.15 K	1.3937 ± 0.0013

[4]
Details	mass density [kg/m3]	viscosity [mPa·s]
293.15 K	717.94 ± 0.24	0.724 ± 0.011
298.15 K	714.11 ± 0.24	0.681 ± 0.011
303.15 K	710.2 ± 0.24	0.64 ± 0.011
308.15 K	706.29 ± 0.25	0.604 ± 0.011
313.15 K	702.35 ± 0.25	0.571 ± 0.011
318.15 K	698.4 ± 0.25	0.547 ± 0.011
323.15 K	694.43 ± 0.25	0.521 ± 0.011

CCCCCCCCC [nonane] + C1CC[C@H]2CCCC[C@H]2C1
[3], 100 kPa
Details	refractive index
298.15 K	1.4026 ± 0.0013
308.15 K	1.3983 ± 0.0013
318.15 K	1.3937 ± 0.0013

[4]
Details	mass density [kg/m3]	viscosity [mPa·s]
293.15 K	717.94 ± 0.24	0.724 ± 0.011
298.15 K	714.11 ± 0.24	0.681 ± 0.011
303.15 K	710.2 ± 0.24	0.64 ± 0.011
308.15 K	706.29 ± 0.25	0.604 ± 0.011
313.15 K	702.35 ± 0.25	0.571 ± 0.011
318.15 K	698.4 ± 0.25	0.547 ± 0.011
323.15 K	694.43 ± 0.25	0.521 ± 0.011

C1CC[C@H]2CCCC[C@@H]2C1 [trans-decahydronaphthalene]
Details	mass density, [2] [kg/m3]	refractive index, [1]	viscosity, [2] [mPa·s]
293.15 K	869.78 ± 0.13	–	2.112 ± 0.015
298.15 K	866.07 ± 0.13	1.4662 ± 0.0012	1.925 ± 0.015
303.15 K	862.34 ± 0.14	–	1.769 ± 0.014
308.15 K	858.61 ± 0.14	1.4618 ± 0.0012	1.628 ± 0.013
313.15 K	854.88 ± 0.14	–	1.505 ± 0.013
318.15 K	851.14 ± 0.14	1.4581 ± 0.0012	1.394 ± 0.013
323.15 K	847.4 ± 0.14	–	1.295 ± 0.012

CCCCCCCCCCC [undecane]
Details	mass density, [2] [kg/m3]	refractive index, [1]	viscosity, [2] [mPa·s]
293.15 K	740.28 ± 0.32	–	1.17 ± 0.014
298.15 K	736.63 ± 0.32	1.4138 ± 0.0013	1.086 ± 0.014
303.15 K	732.93 ± 0.32	–	1.004 ± 0.013
308.15 K	729.22 ± 0.32	1.4095 ± 0.0013	0.931 ± 0.013
313.15 K	725.51 ± 0.32	–	0.862 ± 0.013
318.15 K	721.78 ± 0.32	1.4058 ± 0.0013	0.801 ± 0.012
323.15 K	718.04 ± 0.31	–	0.749 ± 0.012

CCCCCCCCCCC [undecane] + C1CC[C@H]2CCCC[C@@H]2C1
[3], 100 kPa
Details	refractive index
298.15 K	1.4138 ± 0.0013
308.15 K	1.4095 ± 0.0013
318.15 K	1.4058 ± 0.0013

[4]
Details	mass density [kg/m3]	viscosity [mPa·s]
293.15 K	740.28 ± 0.32	1.17 ± 0.014
298.15 K	736.63 ± 0.32	1.086 ± 0.014
303.15 K	732.93 ± 0.32	1.004 ± 0.013
308.15 K	729.22 ± 0.32	0.931 ± 0.013
313.15 K	725.51 ± 0.32	0.862 ± 0.013
318.15 K	721.78 ± 0.32	0.801 ± 0.012
323.15 K	718.04 ± 0.31	0.749 ± 0.012

CCCCCCCCCCC [undecane] + C1CC[C@H]2CCCC[C@H]2C1
[3], 100 kPa
Details	refractive index
298.15 K	1.4138 ± 0.0013
308.15 K	1.4095 ± 0.0013
318.15 K	1.4058 ± 0.0013

[4]
Details	mass density [kg/m3]	viscosity [mPa·s]
293.15 K	740.28 ± 0.32	1.17 ± 0.014
298.15 K	736.63 ± 0.32	1.086 ± 0.014
303.15 K	732.93 ± 0.32	1.004 ± 0.013
308.15 K	729.22 ± 0.32	0.931 ± 0.013
313.15 K	725.51 ± 0.32	0.862 ± 0.013
318.15 K	721.78 ± 0.32	0.801 ± 0.012
323.15 K	718.04 ± 0.31	0.749 ± 0.012
